Assay results: US20060014801A1, “Prevention and treatment of cognitive impairment using (R)-(-)-5-methyl-1-nicotynoyl-2-pyrazoline (MNP) and analogs” (The Johns Hopkins University, priority 2002, published 2006)
Like-named read-outs stand apart in the source and are kept apart here.

Tests used:
[1] = tested on: GLT1B; assay: Western blot of GLT1B protein expression in hippocampus of young rats after 7 days s.c. MNP; assay type: in vivo, Long-Evans rats; conditions: 50 mg/kg/day s.c. minipump
Description: Administration of MNP: Twelve young Long-Evans rats, weighing approximately 400-500 grams, received treatment with either vehicle (0.9% saline; n=6) or MNP (50 mg/kg/day; n=6). The rats were administered MNP and vehicle continuously for one week via an osmotic minipump (Alzet, model 2ML1) implanted subcutaneously on the back, slightly posterior to the scapulae. After 7 days of treatment, the rats were sacrificed, their brains were removed, the hippocampi dissected out, frozen on dry ice and sent for Western blot analysis. The implanted minipump was also removed to verify proper drug delivery by measuring residual volume.
Preparation of brain tissue; Hippocampi were homogenized in 2 ml sucrose buffer (20 mM Tris pH 7.4, 10% sucrose, complete protease inhibitor cocktail mini-tablets [Roche cat#1-836-153]) for 25 seconds (Omni 115V Tissue Homogenizer TH-115). SDS (at 2%) was immediately added to the homogenate, and the samples were sonicated (Branson Sonifier 250; 10 pulses each). Extracts were total cellular extracts solubilized in SDS and include both cytoplasmic and membrane-bound GLT1.
Western blot analysis: Immunoblotting was performed using a LICOR Odyssey based system which uses IRDye 800 and Alexa Fluor 680 labeled secondary antibodies and signal is detected by diode lasers sensitive to infrared emissions of different wavelength. […]

[2] = Pharmacokinetics of MNP in the rat (plasma, LC/MS/MS); assay type: in vivo, male Sprague-Dawley rats; conditions: for concentration at 5 min / concentration at 15 min / concentration at 30 min / concentration at 60 min / concentration at 120 min / concentration at 180 min / concentration at 240 min / concentration at 480 min / concentration at 720 min / concentration at 1440 min: mean ± s.e.m., 3 rats, read-out: MNP plasma levels
Description: Pharmacokinetic experiments were conducted. MNP was dissolved in saline solution (0.9% NaCl) and administered to male Sprague-Dawley rats (weighing 250-315 grams) with vascular catheters surgically placed in both jugular veins (Charles River, Wilmington, Mass.). The catheter on the left jugular vein was used for intravenous infusion of 5 mg/kg MNP (in the animals that received the i.v. dosing), while the catheter on the right jugular vein was used for blood sample collection. Oral doses of MNP (50 and 200 mg/kg) were administered by oral gavage. […] The samples were collected in heparin-coated microtainers, spun down in a microcentrifuge (14,000 rpm for 7 minutes) to separate out the blood plasma and frozen until analyzed. Plasma levels were quantitated by LC/MS/MS analysis (Applied Biosystems/MDS SCIEX API 3000).
The pharmacokinetic parameters Cmax, tmax, area-under-the-curve (AUC), clearance, and half-life (t1/2) were calculated for oral doses of MNP (50 and 200 mg/kg) and are described in Table II. These parameters are compared to the intravenous dose (5 mg/kg) to determine the oral bioavailability (Foral) of MNP in the rat. […] The roughly 30-minute terminal half-life calculated for the intravenous dose of MNP (5 mg/kg) was similar to previously reported data (Umemura et al., Stroke, 1996; 27:1624-1628).

[3] = male, Sprague-Dawley, plasma, intravenous, 5 mg/kg i.v.
[4] = male, Sprague-Dawley, plasma, iv, 5 mg/kg i.v., approximate value
[5] = male, Sprague-Dawley, plasma, oral, 50 mg/kg p.o.
[6] = male, Sprague-Dawley, plasma, oral, 200 mg/kg p.o.
[7] = male, Sprague-Dawley, plasma, po, 50 mg/kg p.o., approximate value
[8] = male, Sprague-Dawley, plasma, po, 200 mg/kg p.o., approximate value

Which “GLT1B immunoreactivity compared to vehicle controls” value [1] does the source give for `C[C@@H]1CC=NN1C(=O)c1cccnc1` [MNP, (R)-(−)-5-methyl-1-nicotinoyl-2-pyrazoline] here?
Its value is “no difference”.

And the “Time of secondary plasma peak” value ([2]; 50 mg/kg oral dose)?
Its value is “about 8 hours”.

And the “˜Clearance” value ([2]; 50 mg/kg p.o., approximate value, Clearance = Dose/AUC)?
The value was ~4.8 mL/min.

And the “Plasma levels at 24 hours post-administration” value ([2]; 200 mg/kg oral dose)?
The value was “significant plasma levels”.

What about the “˜Clearance” value ([2]; 200 mg/kg p.o., approximate value, Clearance = Dose/AUC) of the same compound?
Its value is ~7.8 mL/min.

What about the “Oral bioavailability (in words)” value ([2]; based on AUC and Foral for both oral doses (50 and 200 mg/kg)) of the same compound?
The value was “highly bioavailable”.

What about the half-life ([2]; male, Sprague-Dawley, plasma, 5 mg/kg intravenous dose, read-out: Terminal half-life) of the same compound?
Its half-life is ~30 min.

What about the concentration at 5 min [2, 3] of the same compound?
The concentration at 5 min was 6550 ± 32 ng/mL.

What about the concentration at 15 min [2, 3] of the same compound?
Its concentration at 15 min is 4530 ± 60 ng/mL.

And the concentration at 30 min [2, 3]?
Its concentration at 30 min is 2880 ± 95 ng/mL.

What about the concentration at 60 min [2, 3] of the same compound?
Its concentration at 60 min is 1300 ± 75 ng/mL.

And the concentration at 120 min [2, 3]?
Its concentration at 120 min is 272 ± 9 ng/mL.

And the concentration at 180 min [2, 3]?
Its concentration at 180 min is 51 ± 3 ng/mL.

And the concentration at 240 min [2, 3]?
The concentration at 240 min was 13 ± 1 ng/mL.

And the concentration at 480 min [2, 3]?
Its concentration at 480 min is 2 ± 1 ng/mL.

What about the concentration at 720 min [2, 3] of the same compound?
Its concentration at 720 min is 3 ± 2 ng/mL.

And the concentration at 1440 min [2, 3]?
The concentration at 1440 min was 2 ± 0.5 ng/mL.

And the AUC [2, 4]?
The AUC was ~4220 ng·h/mL.

And the Cmax [2, 4]?
The Cmax was ~6550 ng/mL.

What about the Tmax [2, 4] of the same compound?
The Tmax was ~5 min.

And the clearance ([2]; male, Sprague-Dawley, plasma, iv, 5 mg/kg i.v., approximate value, Clearance = Dose/AUC)?
Its clearance is ~5.6 mL/min.

What about the bioavailability ([2]; male, Sprague-Dawley, plasma, oral, 50 mg/kg p.o. vs 5 mg/kg i.v., effects of saturation and accumulation unknown, read-out: ˜Bioavailability (Foral; %)) of the same compound?
Its bioavailability is ~119%.

And the concentration at 5 min [2, 5]?
The concentration at 5 min was 16000 ± 1720 ng/mL.

And the concentration at 15 min [2, 5]?
The concentration at 15 min was 16000 ± 933 ng/mL.

What about the concentration at 30 min [2, 5] of the same compound?
The concentration at 30 min was 13600 ± 1120 ng/mL.

And the concentration at 60 min [2, 5]?
The concentration at 60 min was 9980 ± 976 ng/mL.

What about the concentration at 120 min [2, 5] of the same compound?
The concentration at 120 min was 6140 ± 1980 ng/mL.

And the concentration at 180 min [2, 5]?
Its concentration at 180 min is 4180 ± 1640 ng/mL.

And the concentration at 240 min [2, 5]?
Its concentration at 240 min is 2470 ± 792 ng/mL.

What about the concentration at 480 min [2, 5] of the same compound?
The concentration at 480 min was 2850 ± 755 ng/mL.

What about the concentration at 720 min [2, 5] of the same compound?
The concentration at 720 min was 536 ± 327 ng/mL.

And the concentration at 1440 min [2, 5]?
The concentration at 1440 min was 9 ± 6 ng/mL.

And the bioavailability ([2]; male, Sprague-Dawley, plasma, oral, 200 mg/kg p.o. vs 5 mg/kg i.v., effects of saturation and accumulation unknown, read-out: ˜Bioavailability (Foral; %))?
Its bioavailability is ~80%.

And the concentration at 5 min [2, 6]?
Its concentration at 5 min is 50300 ± 2640 ng/mL.

And the concentration at 15 min [2, 6]?
The concentration at 15 min was 41300 ± 3210 ng/mL.

What about the concentration at 30 min [2, 6] of the same compound?
The concentration at 30 min was 36500 ± 5570 ng/mL.

What about the concentration at 60 min [2, 6] of the same compound?
The concentration at 60 min was 21600 ± 3790 ng/mL.

What about the concentration at 120 min [2, 6] of the same compound?
The concentration at 120 min was 11000 ± 2190 ng/mL.

What about the concentration at 180 min [2, 6] of the same compound?
The concentration at 180 min was 5700 ± 1970 ng/mL.

And the concentration at 240 min [2, 6]?
Its concentration at 240 min is 5840 ± 1440 ng/mL.

What about the concentration at 480 min [2, 6] of the same compound?
The concentration at 480 min was 2920 ± 343 ng/mL.

What about the concentration at 720 min [2, 6] of the same compound?
The concentration at 720 min was 1160 ± 360 ng/mL.

What about the concentration at 1440 min [2, 6] of the same compound?
The concentration at 1440 min was 6250 ± 2830 ng/mL.

And the AUC [2, 7]?
The AUC was ~50200 ng·h/mL.

And the Cmax [2, 7]?
The Cmax was ~16000 ng/mL.

And the Tmax [2, 7]?
The Tmax was ~10 min.

What about the half-life ([2]; male, Sprague-Dawley, plasma, po, 50 mg/kg p.o., approximate value, read-out: ˜t1/2) of the same compound?
Its half-life is ~150 min.

What about the AUC [2, 8] of the same compound?
The AUC was ~134000 ng·h/mL.

What about the Cmax [2, 8] of the same compound?
The Cmax was ~50300 ng/mL.

What about the Tmax [2, 8] of the same compound?
The Tmax was ~5 min.

What about the half-life ([2]; male, Sprague-Dawley, plasma, po, 200 mg/kg p.o., approximate value, read-out: ˜t1/2) of the same compound?
The half-life was ~90 min.

What about the bioavailability ([2]; male, Sprague-Dawley, plasma, po, based on the results of Example 2, read-out: Oral bioavailability) of the same compound?
Its bioavailability is ≤ 80%.

What about the Oral absorption ([2]; oral gavage, significant plasma levels at the 5-min time point) of the same compound?
Its Oral absorption is “rapidly absorbed”.
